PubChem BioAssay AID1963843 (Molecular Pharmacology Branch, DTP, NCI, 2024)

System: 616215-338-R-J1-PDC complex spheroid viability
Assay: Anticancer human tumor 616215-338-R-J1-PDC patient-derived colon adenocarcinoma cell line growth inhibition [POLQ]
Conditions: for IC50: curve of first compound; for viability, T/C: stronger effect = lower value; active means viability on the fitted dose curve at most 10% of control; inactive means the rest
In short: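 Growth inhibition in 3D: complex spheroids (tumor PDC, HUVEC, MSC) treated with POLQ inhibitor combinations; where Cmax unknown, highest tested concentration 10 microM, except SN-38 at 1 microM.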

[1] = second compound 0.0316 µM, first compound 0.00316 µM
[2] = second compound 0.0316 µM, first compound 0.01 µM
[3] = second compound 0.0316 µM, first compound 0.0316 µM
[4] = second compound 0.0316 µM, first compound 0.1 µM
[5] = second compound 0.0316 µM, first compound 0.316 µM
[6] = second compound 0.0316 µM, first compound 1 µM
[7] = second compound 0.1 µM, first compound 0.00316 µM
[8] = second compound 0.1 µM, first compound 0.01 µM
[9] = second compound 0.1 µM, first compound 0.0316 µM
[10] = second compound 0.1 µM, first compound 0.1 µM
[11] = second compound 0.1 µM, first compound 0.316 µM
[12] = second compound 0.1 µM, first compound 1 µM
[13] = second compound 0.316 µM, first compound 0.00316 µM
[14] = second compound 0.316 µM, first compound 0.01 µM
[15] = second compound 0.316 µM, first compound 0.0316 µM
[16] = second compound 0.316 µM, first compound 0.1 µM
[17] = second compound 0.316 µM, first compound 0.316 µM
[18] = second compound 0.316 µM, first compound 1 µM
[19] = second compound 1 µM, first compound 0.00316 µM
[20] = second compound 1 µM, first compound 0.01 µM
[21] = second compound 1 µM, first compound 0.0316 µM
[22] = second compound 1 µM, first compound 0.1 µM
[23] = second compound 1 µM, first compound 0.316 µM
[24] = second compound 1 µM, first compound 1 µM
[25] = second compound 3.16 µM, first compound 0.00316 µM
[26] = second compound 3.16 µM, first compound 0.01 µM
[27] = second compound 3.16 µM, first compound 0.0316 µM
[28] = second compound 3.16 µM, first compound 0.1 µM
[29] = second compound 3.16 µM, first compound 0.316 µM
[30] = second compound 3.16 µM, first compound 1 µM
[31] = second compound 10 µM, first compound 0.00316 µM
[32] = second compound 10 µM, first compound 0.01 µM
[33] = second compound 10 µM, first compound 0.0316 µM
[34] = second compound 10 µM, first compound 0.1 µM
[35] = second compound 10 µM, first compound 0.316 µM
[36] = second compound 10 µM, first compound 1 µM
[37] = second compound 0.0316 µM, first compound 3.16 µM
[38] = second compound 0.0316 µM, first compound 10 µM
[39] = second compound 0.1 µM, first compound 3.16 µM
[40] = second compound 0.1 µM, first compound 10 µM
[41] = second compound 0.316 µM, first compound 3.16 µM
[42] = second compound 0.316 µM, first compound 10 µM
[43] = second compound 1 µM, first compound 3.16 µM
[44] = second compound 1 µM, first compound 10 µM
[45] = second compound 3.16 µM, first compound 3.16 µM
[46] = second compound 3.16 µM, first compound 10 µM
[47] = second compound 10 µM, first compound 3.16 µM
[48] = second compound 10 µM, first compound 10 µM
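Further: spheroids exposed to compounds for one week before readout.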
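Wherever viability, T/C is given: percent viability relative to DMSO vehicle wells taken as 100%.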

CCc1c2c(nc3ccc(O)cc13)-c1cc3c(c(=O)n1C2)COC(=O)[C@]3(O)CC + Nc1ccc(C#CCN(C(=O)Cc2ncc(C(F)(F)F)cc2C(F)(F)F)c2ccc(F)cc2)nn1
14.8 nM: IC50 (second compound 0.1 µM)
8.73 nM: IC50 (second compound 1 µM)
8.16 nM: IC50 (second compound 3.16 µM)
inactive: viability, T/C [1] 82.6% | viability, T/C [2] 51.4% | viability, T/C [3] 28.6% | viability, T/C [4] 23.1% | viability, T/C [5] 15.7% | viability, T/C [6] 9.67% | viability, T/C [7] 85.5% | viability, T/C [8] 55.2% | viability, T/C [9] 33.7% | viability, T/C [10] 32.2% | viability, T/C [11] 15.5% | viability, T/C [12] 9.4% | viability, T/C [13] 72.8% | viability, T/C [14] 71% | viability, T/C [15] 30.3% | viability, T/C [16] 28.1% | viability, T/C [17] 17.3% | viability, T/C [18] 10.2% | viability, T/C [19] 83.8% | viability, T/C [20] 37.8% | viability, T/C [21] 34% | viability, T/C [22] 28.9% | viability, T/C [23] 17% | viability, T/C [24] 10.2% | viability, T/C [25] 77.6% | viability, T/C [26] 39.2% | viability, T/C [27] 29.3% | viability, T/C [28] 28.6% | viability, T/C [29] 11.9% | viability, T/C [30] 10.9% | viability, T/C [31] 59.2% | viability, T/C [32] 47.8% | viability, T/C [33] 28.5% | viability, T/C [34] 22.5% | viability, T/C [35] 16.1% | viability, T/C [36] 12.8%
7.26 nM: IC50 (second compound 10 µM)
10.4 nM: IC50 (second compound 0.0316 µM)
18.1 nM: IC50 (second compound 0.316 µM)

CNCc1ccc(-c2[nH]c3cc(F)cc4c3c2CCNC4=O)cc1 + Nc1ccc(C#CCN(C(=O)Cc2ncc(C(F)(F)F)cc2C(F)(F)F)c2ccc(F)cc2)nn1
7520 nM: IC50 (second compound 1 µM)
7180 nM: IC50 (second compound 0.1 µM)
7030 nM: IC50 (second compound 3.16 µM)
7710 nM: IC50 (second compound 0.316 µM)
6230 nM: IC50 (second compound 10 µM)
inactive: viability, T/C [3] 101% | viability, T/C [4] 107% | viability, T/C [5] 97% | viability, T/C [6] 104% | viability, T/C [37] 104% | viability, T/C [38] 36.2% | viability, T/C [9] 104% | viability, T/C [10] 111% | viability, T/C [11] 90.3% | viability, T/C [12] 119% | viability, T/C [39] 122% | viability, T/C [40] 25.8% | viability, T/C [15] 102% | viability, T/C [16] 112% | viability, T/C [17] 104% | viability, T/C [18] 95.7% | viability, T/C [41] 119% | viability, T/C [42] 33.4% | viability, T/C [21] 107% | viability, T/C [22] 94.8% | viability, T/C [23] 95.8% | viability, T/C [24] 105% | viability, T/C [43] 106% | viability, T/C [44] 33% | viability, T/C [27] 96.8% | viability, T/C [28] 93.3% | viability, T/C [29] 93.8% | viability, T/C [30] 102% | viability, T/C [45] 105% | viability, T/C [46] 28.6% | viability, T/C [33] 93% | viability, T/C [34] 78.5% | viability, T/C [35] 102% | viability, T/C [36] 103% | viability, T/C [47] 103% | viability, T/C [48] 17.9%
7900 nM: IC50 (second compound 0.0316 µM)

COc1cccc(OCCCN)c1-c1cc(Nc2cnc(C#N)cn2)n[nH]1 + Nc1ccc(C#CCN(C(=O)Cc2ncc(C(F)(F)F)cc2C(F)(F)F)c2ccc(F)cc2)nn1
39 nM: IC50 (second compound 10 µM)
66.1 nM: IC50 (second compound 3.16 µM)
75.9 nM: IC50 (second compound 0.316 µM)
78.7 nM: IC50 (second compound 0.1 µM)
52.7 nM: IC50 (second compound 1 µM)
136 nM: IC50 (second compound 0.0316 µM)
inactive: viability, T/C [1] 109% | viability, T/C [2] 84.9% | viability, T/C [3] 91.2% | viability, T/C [4] 53.8% | viability, T/C [5] 36.9% | viability, T/C [6] 33.1% | viability, T/C [7] 101% | viability, T/C [8] 102% | viability, T/C [9] 77.3% | viability, T/C [10] 43% | viability, T/C [11] 42.6% | viability, T/C [12] 36% | viability, T/C [13] 98.9% | viability, T/C [14] 97.2% | viability, T/C [15] 71.2% | viability, T/C [16] 43.3% | viability, T/C [17] 42.4% | viability, T/C [18] 34.7% | viability, T/C [19] 97.5% | viability, T/C [20] 96.6% | viability, T/C [21] 60.3% | viability, T/C [22] 38.6% | viability, T/C [23] 38% | viability, T/C [24] 29.4% | viability, T/C [25] 103% | viability, T/C [26] 90.3% | viability, T/C [27] 72.7% | viability, T/C [28] 35.7% | viability, T/C [29] 32.9% | viability, T/C [30] 29.7% | viability, T/C [31] 91.7% | viability, T/C [32] 69.3% | viability, T/C [33] 50.2% | viability, T/C [34] 41.2% | viability, T/C [35] 34.4% | viability, T/C [36] 24%

O=C(c1cc(Cc2n[nH]c(=O)c3ccccc23)ccc1F)N1CCN(C(=O)C2CC2)CC1 + Nc1ccc(C#CCN(C(=O)Cc2ncc(C(F)(F)F)cc2C(F)(F)F)c2ccc(F)cc2)nn1
8940 nM: IC50 (second compound 0.316 µM)
inactive: viability, T/C [3] 102% | viability, T/C [4] 99% | viability, T/C [5] 113% | viability, T/C [6] 99.9% | viability, T/C [37] 88.5% | viability, T/C [38] 55.5% | viability, T/C [9] 110% | viability, T/C [10] 94.7% | viability, T/C [11] 104% | viability, T/C [12] 94.1% | viability, T/C [39] 88.6% | viability, T/C [40] 66.9% | viability, T/C [15] 105% | viability, T/C [16] 103% | viability, T/C [17] 92.6% | viability, T/C [18] 88.3% | viability, T/C [41] 102% | viability, T/C [42] 44.8% | viability, T/C [21] 99.8% | viability, T/C [22] 97.6% | viability, T/C [23] 94.4% | viability, T/C [24] 103% | viability, T/C [43] 80% | viability, T/C [44] 55% | viability, T/C [27] 112% | viability, T/C [28] 107% | viability, T/C [29] 99.6% | viability, T/C [30] 93.3% | viability, T/C [45] 98.1% | viability, T/C [46] 54.1% | viability, T/C [33] 96.3% | viability, T/C [34] 88.7% | viability, T/C [35] 80.7% | viability, T/C [36] 79.7% | viability, T/C [47] 81.3% | viability, T/C [48] 47.9%
9490 nM: IC50 (second compound 10 µM)
> 10000 nM: IC50 (second compound 0.0316 µM) | IC50 (second compound 0.1 µM) | IC50 (second compound 1 µM) | IC50 (second compound 3.16 µM)
